Patent publication US11613542B2, “Sulfonylureas and sulfonylthioureas as NLRP3 inhibitors” (Inflazome Limited, priority 2017, dated 2023)
Structures can show the parent of a compound that is named as a salt.

Test: Pharmacokinetic parameters in male Sprague Dawley rats (intravenous and oral administration)
Type: in vivo
Details: rat plasma, dose per compound (mg/kg)
Protocol: Pharmacokinetic parameters were determined in male Sprague Dawley rats (Charles River, UK, 250-350 g; or Vital River Laboratory Animal Technology Co Ltd, Beijing, China, 7-9 weeks old). Animals were individually housed during the study and maintained under a 12 h light/dark cycle. Animals had free access to food and water except that some orally dosed animals were food deprived overnight prior to the study.
For intravenous administration, compounds were formulated as a solution in water or DMSO:PBS [10:90] in 2 mL/kg dosing volume and administered via tail vein. For oral administration, compounds were formulated as a solution in water or DMSO:water [10:90] in 5 mL/kg dosing volume and administered orally.
Serial blood samples (about 120-300 μL) were taken from each animal at each of 8 time-points post dose (0.083, 0.25, 0.5, 1, 2, 4, 8 and 24 h) or at each of 12 time-points post dose (0.03, 0.1, 0.17, 0.25, 0.5, 1, 2, 4, 6, 8,12 and 24 h) or pre-dose and at each of 9 time-points post dose (0.25, 0.5, 1, 2, 4, 6, 8, 12 and 24 h). Samples were held on ice for no longer than 30 minutes before centrifugation (10,000 rpm (8,385 g) for 3 minutes; or 5,696 rpm (3,000 g) for 15 minutes) for plasma generation. Plasma was frozen on dry ice prior to bioanalysis. PK parameters were generated from LC-MS/MS data using Dotmatics or Phoenix WinNonlin 6.3 software.

| CL/F (male, Sprague Dawley, oral administration) [mL/min/kg] | Tmax (male, Sprague Dawley, oral administration, read-out: Tmax) [h] | AUC (oral administration) [ng·h/mL] | Cmax (oral administration) [ng/mL] | T1/2 (oral administration) [h] | AUC (intravenous administration) [ng·h/mL] | Cl (intravenous administration) [mL/min/kg] | T1/2 (intravenous administration) [h] | Vdss (intravenous administration) [L/kg] | SMILES |
| --- | --- | --- | --- | --- | --- | --- | --- | --- | --- |
| 6 | 0.5 | 11115.9 | 5665.0 | 1.1 |  |  |  |  | CC(c1cc(S(=O)(=O)NC(=O)Nc2c3c(cc4c2CCC4)CCC3)nn1C)N(C)C (single isomer, unassigned; enantiomer 2) [Example 90, 5-(1-(Dimethylamino)ethyl)-N-((1,2,3,5,6,7-hexahydro-s-indacen-4-yl)carbamoyl)-1-methyl-1H-pyrazole-3-sulfonamide, Enantiomer 2] |
|  |  |  |  |  | 2710.4 | 10.5 | 3.8 | 1.23 | CCn1nc(S(=O)(=O)NC(=O)Nc2c(-c3ccnc(OC)c3)ccc3c2CCC3)cc1CN(C)C [Example 37, 5-((Dimethylamino)methyl)-1-ethyl-N-((5-(2-methoxypyridin-4-yl)-2,3-dihydro-1H-inden-4-yl)carbamoyl)-1H-pyrazole-3-sulfonamide] |
|  |  |  |  |  | 259.1 | 65.6 | 0.5 | 0.98 | Cc1cc(-c2cc(F)cc(C(C)C)c2NC(=O)NS(=O)(=O)c2cc(CN(C)C)n(C)n2)n(C)n1 [Example 60, N-((2-(1,3-Dimethyl-1H-pyrazol-5-yl)-4-fluoro-6-isopropylphenyl)carbamoyl)-5-((dimethylamino)methyl)-1-methyl-1H-pyrazole-3-sulfonamide] |
|  |  |  |  |  | 259.0 | 64.9 | 0.5 | 0.75 | CC(C)c1cc(F)cc(-c2cccnc2)c1NC(=O)NS(=O)(=O)c1cc(CN(C)C)n(C)n1 [Example 61, 5-((Dimethylamino)methyl)-N-((4-fluoro-2-isopropyl-6-(pyridin-3-yl)phenyl)carbamoyl)-1-methyl-1H-pyrazole-3-sulfonamide] |
|  |  |  |  |  | 375.4 | 51.5 | 1.2 | 1.14 | CC(C)c1cc(F)cc(-c2cccc(C#N)c2)c1NC(=O)NS(=O)(=O)c1cc(CN(C)C)n(C)n1 [Example 66, N-((3′-Cyano-5-fluoro-3-isopropyl-[1,1′-biphenyl]-2-yl)carbamoyl)-5-((dimethylamino)methyl)-1-methyl-1H-pyrazole-3-sulfonamide] |
|  |  |  |  |  | 247.8 | 67.2 | 0.3 | 1.32 | COc1cc(-c2cc(F)cc(C(C)C)c2NC(=O)NS(=O)(=O)c2cc(CN(C)C)n(C(C)C)n2)ccn1 [Example 67, 5-((Dimethylamino)methyl)-N-((4-fluoro-2-isopropyl-6-(2-methoxypyridin-4-yl)phenyl)carbamoyl)-1-isopropyl-1H-pyrazole-3-sulfonamide] |
|  |  |  |  |  | 356.0 | 47.6 | 0.5 | 0.8 | COc1cc(-c2cc(F)cc(C(C)C)c2NC(=O)NS(=O)(=O)c2cc(CN(C)C)n(C)n2)ccn1 [Example 68, 5-((Dimethylamino)methyl)-N-((4-fluoro-2-isopropyl-6-(2-methoxypyridin-4-yl)phenyl)carbamoyl)-1-methyl-1H-pyrazole-3-sulfonamide] |
|  |  |  |  |  | 182.5 | 91.3 | 2.3 | 2.72 | CC(C)c1cc(F)cc(C2CCOCC2)c1NC(=O)NS(=O)(=O)c1cc(C(=O)N(C)C)n(C)n1 [Example 133, 3-(N-((4-Fluoro-2-isopropyl-6-(tetrahydro-2H-pyran-4-yl)phenyl)carbamoyl)sulfamoyl)-N,N,1-trimethyl-1H-pyrazole-5-carboxamide, sodium salt] |
|  |  |  |  |  | 661.2 | 25.2 | 12.1 | 3.03 | CC(C)c1cc(F)cc(-c2cnn(C)c2)c1NC(=O)NS(=O)(=O)c1cc(C(=O)N(C)C)n(C)n1 [Example 135, 3-(N-((4-Fluoro-2-isopropyl-6-(1-methyl-1H-pyrazol-4-yl)phenyl)carbamoyl)sulfamoyl)-N,N,1-trimethyl-1H-pyrazole-5-carboxamide, sodium salt] |
|  |  |  |  |  | 274.4 | 60.7 | 6.3 | 3.95 | CC(C)c1cc(F)cc(-c2cccnc2)c1NC(=O)NS(=O)(=O)c1cc(C(=O)N(C)C)n(C)n1 [Example 141, 3-(N-((4-Fluoro-2-isopropyl-6-(pyridin-3-yl)phenyl)carbamoyl)sulfamoyl)-N,N,1-trimethyl-1H-pyrazole-5-carboxamide, sodium salt] |
|  |  |  |  |  | 353.3 | 160.9 | 1.3 | 10.55 | CC(C)c1cc(Cl)cc(C(C)C)c1NC(=O)NS(=O)(=O)c1cc(C(=O)N(C)C)n(C)n1 [Example 168, 3-(N-((4-Chloro-2,6-diisopropylphenyl)carbamoyl)sulfamoyl)-N,N,1-trimethyl-1H-pyrazole-5-carboxamide] |
